# “And” between values parts separate entries of the source, which are not always exact repeats. Equal entries are not always repeated. Toxic doses and inconclusive results are not listed.
# Tested on: L1210 leukemia ip in BDF1 mice, survival T/C
# Assay: NCI In Vivo Anticancer Drug Screen. Data for tumor model L1210 Leukemia (intraperitoneal) in B6D2F1 (BDF1) mice
# Settings: endpoint: mean survival time, higher = longer survival
# Summary of the method: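 Read-out is survival time, reported as the treated-group measurement over the vehicle-control measurement.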
# [1] = dose: 100.0 mg/kg/injection, schedule: Q04DX003 (ip), vehicle: saline with Tween-80
# [2] = dose: 200.0 mg/kg/injection, schedule: Q04DX003 (ip), vehicle: saline with Tween-80
# [3] = dose: 100.0 mg/kg/injection, schedule: Q01DX009 (ip), vehicle: saline
# [4] = dose: 200.0 mg/kg/injection, schedule: Q01DX009 (ip), vehicle: saline
# [5] = dose: 25.0 mg/kg/injection, schedule: Q04DX003 (ip), vehicle: saline with Tween-80
# [6] = dose: 50.0 mg/kg/injection, schedule: Q04DX003 (ip), vehicle: saline with Tween-80
# [7] = dose: 100.0 mg/kg/injection, schedule: Q04DX002 (ip), vehicle: saline with Tween-80
# [8] = dose: 200.0 mg/kg/injection, schedule: Q04DX002 (ip), vehicle: saline with Tween-80
# [9] = dose: 100.0 mg/kg/injection, schedule: Q01DX009 (ip), vehicle: saline with Tween-80
# [10] = dose: 100.0 mg/kg/injection, schedule: Q01DX001 (ip), vehicle: saline
# [11] = dose: 200.0 mg/kg/injection, schedule: Q01DX001 (ip), vehicle: saline
# [12] = dose: 400.0 mg/kg/injection, schedule: Q01DX001 (ip), vehicle: saline
# [13] = dose: 100.0 mg/kg/injection, schedule: Q04DX003 (ip), vehicle: Klucel (hydroxypropylcellulose) (HPC)
# [14] = dose: 100.0 mg/kg/injection, schedule: Q04DX002 (ip), vehicle: Klucel (hydroxypropylcellulose) (HPC)
# [15] = dose: 200.0 mg/kg/injection, schedule: Q04DX002 (ip), vehicle: Klucel (hydroxypropylcellulose) (HPC)
# [16] = dose: 400.0 mg/kg/injection, schedule: Q04DX002 (ip), vehicle: Klucel (hydroxypropylcellulose) (HPC)
# [17] = dose: 100.0 mg/kg/injection, schedule: Q01DX009 (ip), vehicle: Klucel (hydroxypropylcellulose) (HPC)
# [18] = dose: 200.0 mg/kg/injection, schedule: Q01DX009 (ip), vehicle: Klucel (hydroxypropylcellulose) (HPC)
# [19] = dose: 400.0 mg/kg/injection, schedule: Q01DX009 (ip), vehicle: Klucel (hydroxypropylcellulose) (HPC)
smiles,measurement,setting,value
CC(=O)Nc1ccc(S(=O)(=O)N=S(c2ccccc2)c2ccccc2)cc1,T/C,"dose: 50.0 mg/kg/injection, schedule: Q01DX001 (ip), vehicle: carboxymethylcellulose (CMC)",101 % of control
same,T/C,"dose: 100.0 mg/kg/injection, schedule: Q01DX001 (ip), vehicle: carboxymethylcellulose (CMC)",101 % of control
same,T/C,"dose: 200.0 mg/kg/injection, schedule: Q01DX001 (ip), vehicle: carboxymethylcellulose (CMC)",94 % of control
same,T/C,"dose: 400.0 mg/kg/injection, schedule: Q01DX001 (ip), vehicle: carboxymethylcellulose (CMC)",97 % of control
C/C=C/C(OCC)OCC,T/C,"dose: 25.0 mg/kg/injection, schedule: Q01DX009 (ip), vehicle: water",105 % of control
same,T/C,"dose: 50.0 mg/kg/injection, schedule: Q01DX009 (ip), vehicle: water",111 % of control
same,T/C,"dose: 100.0 mg/kg/injection, schedule: Q01DX009 (ip), vehicle: water",106 % of control
O=P(Oc1ccccc1)(Oc1ccccc1)C(Nc1ccccc1)c1cccnc1 (stereo unspecified),T/C,[1],89 % of control
same,T/C,[2],103 % of control
O=NN(CCCl)C(=O)N[C@H]1CCC[C@@H](O)C1,T/C,"dose: 12.0 mg/kg/injection, schedule: Q01DX001 (ip), vehicle: saline with Tween-80",176 % of control
same,T/C,"dose: 18.0 mg/kg/injection, schedule: Q01DX001 (ip), vehicle: saline with Tween-80",306 % of control
same,T/C,"dose: 26.0 mg/kg/injection, schedule: Q01DX001 (ip), vehicle: saline with Tween-80",468 % of control
same,T/C,"dose: 40.0 mg/kg/injection, schedule: Q01DX001 (ip), vehicle: saline with Tween-80",468 % of control
same,T/C,"dose: 60.0 mg/kg/injection, schedule: Q01DX001 (ip), vehicle: saline with Tween-80",382 % of control
same,T/C,"dose: 90.0 mg/kg/injection, schedule: Q01DX001 (ip), vehicle: saline with Tween-80",86 % of control
CCOC(=O)NNC(=O)Nc1ccc(Cl)c([N+](=O)[O-])c1,T/C,[3],104 % of control
same,T/C,[4],93 % of control
CCCCCCC1CCCCN1 (stereo unspecified),T/C,"dose: 5.0 mg/kg/injection, schedule: Q01DX001 (ip), vehicle: saline",104 % of control
same,T/C,"dose: 10.0 mg/kg/injection, schedule: Q01DX001 (ip), vehicle: saline",96 % of control
same,T/C,"dose: 12.5 mg/kg/injection, schedule: Q04DX003 (ip), vehicle: saline with Tween-80",103 % of control
same,T/C,"dose: 20.0 mg/kg/injection, schedule: Q01DX001 (ip), vehicle: saline",98 % of control
same,T/C,[5],98 % of control
same,T/C,"dose: 40.0 mg/kg/injection, schedule: Q01DX001 (ip), vehicle: saline",96 % of control
same,T/C,[6],103 % of control
O=C(O)c1cncc(-c2ccccc2)c1,T/C,[7],104 % of control
same,T/C,[8],111 % of control
O=C(NCC(O)CI)c1ccc([N+](=O)[O-])cc1 (stereo unspecified),T/C,[9],104 % of control
same,T/C,"dose: 200.0 mg/kg/injection, schedule: Q01DX009 (ip), vehicle: saline with Tween-80",102 % of control
same,T/C,"dose: 400.0 mg/kg/injection, schedule: Q01DX009 (ip), vehicle: saline with Tween-80",89 % of control
COC(=O)Nc1ccccc1[N+](=O)[O-],T/C,"dose: 100.0 mg/kg/injection, schedule: Q04DX003 (ip), vehicle: other",103 % of control
same,T/C,"dose: 200.0 mg/kg/injection, schedule: Q04DX003 (ip), vehicle: other",101 % of control
same,T/C,"dose: 400.0 mg/kg/injection, schedule: Q04DX003 (ip), vehicle: other",111 % of control
CCOCCC=O,T/C,"dose: 50.0 mg/kg/injection, schedule: Q01DX009 (ip), vehicle: saline",97 % of control
same,T/C,[3],91 % of control
same,T/C,[4],91 % of control
COC1C=CC=CC=C1,T/C,"dose: 15.0 mg/kg/injection, schedule: Q01DX009 (ip), vehicle: saline with Tween-80",108 % of control
same,T/C,"dose: 30.0 mg/kg/injection, schedule: Q01DX009 (ip), vehicle: saline with Tween-80",113 % of control
same,T/C,"dose: 60.0 mg/kg/injection, schedule: Q01DX009 (ip), vehicle: saline with Tween-80",103 % of control
CC(=O)OCC1C(OC(C)=O)C(OC(C)=O)C(OC(C)=O)N1C(C)=O (stereo unspecified),T/C,"dose: 50.0 mg/kg/injection, schedule: Q01DX001 (ip), vehicle: saline",98 % of control
same,T/C,[10],95 % of control
same,T/C,[11],98 % of control
same,T/C,[12],98 % of control
Cc1cc2c3ccccc3c3ccccc3c2nn1,T/C,[10],103 % of control
same,T/C,[11],101 % of control
same,T/C,[12],100 % of control
CSc1ccc(NC(=O)Nc2ccc(C(=O)NCC(=O)O)cc2)cc1,T/C,"dose: 25.0 mg/kg/injection, schedule: Q01DX009 (ip), vehicle: saline with Tween-80",102 % of control and 92 % of control
same,T/C,[5],96 % of control
same,T/C,[6],105 % of control
same,T/C,"dose: 100.0 mg/kg/injection, schedule: Q01DX001 (ip), vehicle: saline with Tween-80",97 % of control
same,T/C,[7],96 % of control and 91 % of control
same,T/C,[1],110 % of control
same,T/C,[8],94 % of control and 99 % of control
CC(C)(C)c1ccc(Sc2cnccc2C(C)(C)C)cc1,T/C,"dose: 87.5 mg/kg/injection, schedule: Q04DX003 (ip), vehicle: saline with Tween-80",97 % of control
same,T/C,"dose: 175.0 mg/kg/injection, schedule: Q04DX003 (ip), vehicle: saline with Tween-80",102 % of control
same,T/C,"dose: 350.0 mg/kg/injection, schedule: Q04DX003 (ip), vehicle: saline with Tween-80",94 % of control
C=CC(=O)OCC(C)([N+](=O)[O-])[N+](=O)[O-],T/C,"dose: 50.0 mg/kg/injection, schedule: Q01DX009 (ip), vehicle: saline with Tween-80",103 % of control
same,T/C,[9],97 % of control
same,T/C,[1],103 % of control
same,T/C,[2],96 % of control
Cc1ccc(S(=O)(=O)N=Nc2c(O)[nH]c3ccccc23)cc1,T/C,"dose: 75.0 mg/kg/injection, schedule: Q04DX002 (ip), vehicle: gum acacia",93 % of control
same,T/C,"dose: 150.0 mg/kg/injection, schedule: Q04DX002 (ip), vehicle: gum acacia",93 % of control
same,T/C,"dose: 300.0 mg/kg/injection, schedule: Q04DX002 (ip), vehicle: gum acacia",100 % of control
CCOP(=O)(OCC)/C(=C\c1ccccc1)C(=O)c1ccccc1,T/C,"dose: 25.0 mg/kg/injection, schedule: Q04DX003 (ip), vehicle: Klucel (hydroxypropylcellulose) (HPC)",87 % of control
same,T/C,"dose: 50.0 mg/kg/injection, schedule: Q04DX003 (ip), vehicle: Klucel (hydroxypropylcellulose) (HPC)",87 % of control
same,T/C,"dose: 100.0 mg/kg/injection, schedule: Q01DX001 (ip), vehicle: Klucel (hydroxypropylcellulose) (HPC)",107 % of control
same,T/C,[13],90 % of control
same,T/C,"dose: 200.0 mg/kg/injection, schedule: Q01DX001 (ip), vehicle: Klucel (hydroxypropylcellulose) (HPC)",98 % of control
same,T/C,"dose: 400.0 mg/kg/injection, schedule: Q01DX001 (ip), vehicle: Klucel (hydroxypropylcellulose) (HPC)",106 % of control
O=C(O)CSc1ccc([N+](=O)[O-])cc1[N+](=O)[O-],T/C,[14],100 % of control
same,T/C,[15],96 % of control
same,T/C,[16],96 % of control
CCOC(=O)C1OC12CCCCC2 (stereo unspecified),T/C,[17],100 % of control
same,T/C,"dose: 100.0 mg/kg/injection, schedule: Q04DX003 (ip), vehicle: saline",92 % of control
same,T/C,[18],92 % of control
same,T/C,"dose: 200.0 mg/kg/injection, schedule: Q04DX003 (ip), vehicle: saline",96 % of control
same,T/C,[19],100 % of control
same,T/C,"dose: 400.0 mg/kg/injection, schedule: Q04DX003 (ip), vehicle: saline",89 % of control
Cc1[nH]c(=O)[nH]c(=O)c1[N+](=O)[O-],T/C,[17],94 % of control
same,T/C,[13],102 % of control
same,T/C,[18],101 % of control
same,T/C,"dose: 200.0 mg/kg/injection, schedule: Q04DX003 (ip), vehicle: Klucel (hydroxypropylcellulose) (HPC)",104 % of control
same,T/C,[19],87 % of control
same,T/C,"dose: 400.0 mg/kg/injection, schedule: Q04DX003 (ip), vehicle: Klucel (hydroxypropylcellulose) (HPC)",102 % of control
CCOC(=O)c1cccnc1N(C(=O)c1ccccc1)C(=O)c1ccccc1,T/C,[14],95 % of control
same,T/C,[15],95 % of control
same,T/C,[16],89 % of control

# Reference: PubChem BioAssay AID248 (DTP/NCI, 2004)
